For assay [1], the target named is T1, AR, cytosol from LnCaP cells (Homo sapiens, UniProt P10275, T878A).
T1 construct: AR in LNCaP cytosol was used; endogenous in cells; host or cells: LNCaP cells (cytosol)
T1 sequence (P10275 1-920 T878A): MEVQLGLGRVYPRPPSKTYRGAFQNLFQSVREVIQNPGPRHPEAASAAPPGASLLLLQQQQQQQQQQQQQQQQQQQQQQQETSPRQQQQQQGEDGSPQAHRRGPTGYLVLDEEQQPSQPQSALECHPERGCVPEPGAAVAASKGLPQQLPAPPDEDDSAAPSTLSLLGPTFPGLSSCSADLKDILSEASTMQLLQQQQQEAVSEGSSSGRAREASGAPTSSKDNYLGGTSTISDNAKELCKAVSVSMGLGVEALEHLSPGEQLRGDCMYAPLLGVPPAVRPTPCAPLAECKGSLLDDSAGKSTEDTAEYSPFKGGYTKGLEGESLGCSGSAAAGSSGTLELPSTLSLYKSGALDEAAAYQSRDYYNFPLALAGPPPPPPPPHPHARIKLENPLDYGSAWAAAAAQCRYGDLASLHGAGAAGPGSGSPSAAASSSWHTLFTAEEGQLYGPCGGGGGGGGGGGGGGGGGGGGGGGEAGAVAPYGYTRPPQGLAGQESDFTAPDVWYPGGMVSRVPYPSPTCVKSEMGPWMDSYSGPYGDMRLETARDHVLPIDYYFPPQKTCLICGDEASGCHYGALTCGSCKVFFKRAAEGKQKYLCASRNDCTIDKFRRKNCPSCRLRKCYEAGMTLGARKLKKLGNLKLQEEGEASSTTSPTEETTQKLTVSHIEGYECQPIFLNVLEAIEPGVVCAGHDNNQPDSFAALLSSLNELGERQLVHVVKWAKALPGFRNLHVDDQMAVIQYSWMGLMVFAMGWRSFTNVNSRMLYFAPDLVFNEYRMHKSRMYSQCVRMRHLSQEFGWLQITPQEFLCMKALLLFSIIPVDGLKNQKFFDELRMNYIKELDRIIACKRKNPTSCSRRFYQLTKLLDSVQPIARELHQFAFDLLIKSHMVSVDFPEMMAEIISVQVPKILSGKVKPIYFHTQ
As to the kind of experiment: AR binding assay, 3H-R1881 (Biological Example 2). As to the method:
AR binding assay: To assess AR binding, test compound (top dose […], 4 fold serial dilution, 8 point dose response) and control (progesterone) were transferred to the assay plate. Cytosol from LnCaP cells was added to the plate, followed by addition of radiolabeled ^3H-R1881 at a final concentration of 1 nM. The plate was sealed, and the reaction was incubated at 300 rpm at 4° C. for 24 hrs. Radioligand absorption buffer (10 mM Tris-HCl, pH 7.4; 1.5 mM EDTA; 1 mM DTT; 0.25% charcoal; 0.0025% dextran) was then added to the plate, mixed, and incubated at 4° C. for 15 minutes. The plate was then centrifuged at 3000 rpm for 30 minutes at 4° C. The supernatant was transferred to the scint-tube and Tri-carb was used for scintillation counting. The data was analyzed using GraphPadPrism v5.0 and binding IC50 was determined as the concentration where 50% inhibition of radioligand binding was observed.

The test system of a further assay is LNCap cells. Description: Cell viability assay (CellTiterGlo, 6 days) LNCap. The format is cell-based. The following applies: Homo sapiens, 144 h. As to the method:
Cell viability assay: LNCap, 22Rv1, and T47D cells were seeded at a density of 1500-2000 cells/well in 96 well plates, and a ‘T0’ (timepoint 0) was included along with the assay plate. The plates were then incubated at 37° C., 5% CO2 in a cell culture incubator overnight. On the next day, the ‘T0’ plate was assayed using CellTiterGlo (Promega, Inc) according to the manufacturer's instructions. The appropriate compounds were diluted in DMSO and added to the assay plate (final DMSO concentration of 0.2%) on the next day. The assay plates were incubated for 6 days at 37° C., 5% CO2. After the incubation period, the plates were assayed using CellTiterGlo (Promega, Inc) according to the manufacturer's instructions and luminescence was read on the EnVision plate reader. Inhibition the tested compounds was determined by the following formula: Inhibition rate (%)=(1−(RLU compound−RLU day0)/(RLU control−RLU day0))*100%. GraphPadPrism was used to analyze the data and determine absolute IC50 values.

The target in assay [2] is T2, full-length androgen receptor (Homo sapiens, UniProt P10275).
T2 construct: HEK293 cells stably expressing the full-length androgen receptor; expressed in transfected cells
T2 sequence (P10275 1-920): T1 sequence (P10275 1-920 T878A) with A878T
As to the kind of experiment: AR antagonism assay (HEK293, testosterone 1 nM, Steady-glo). The format is cell-based. As to the method:
AR antagonism assay: To evaluate AR antagonist activity, test compound was added to the assay plate (top dose 10 μM, 3 fold serial dilution, 10 point dose response). HEK293 cells stably expressing the full-length androgen receptor were seeded at a density of 20000 cells/well in the assay plate. The assay plate was then incubated at room temperature for 10 minutes and at 37° C., 5% CO2 for 20 minutes. Testosterone was added to the assay plate at 1 nM final concentration and the assay plate was incubated at 37° C., 5% CO2 for 20 h. After the incubation period, Steady-glo was added to the assay plate and mixed at room temperature for 20 minutes on an orbital shaker, before reading out on the EnVision plate reader.

[3] abbreviates: Table 8, 3H-R1881 1 nM, read-out: AR binding.
The mark [4] stands for this setting: Table 8, testosterone 1 nM, read-out: AR antagonism.

In patent publication US11952349B2, “Anti-cancer nuclear hormone receptor-targeting compounds” (Nuvation Bio Inc., priority 2019, dated 2024) one finds IC50 data, which are given here for 7 compounds.

SMILES strings stand for the structures. Numbering of substitutions follows the chain as printed. Like-named read-outs stand apart in the source and are kept apart here. Where only a bound is given, the exact number is not on record here.

Turning to `C[C@]12CC[C@H]3[C@@H](CCC4=CC(=O)CC[C@@]43C)[C@@H]1CC[C@@H]2C(=O)COCCCCCC(=O)N1CCN(C(=O)c2cc(Cc3n[nH]c(=O)c4ccccc34)ccc2F)CC1` [Compound 1386, 4-(3-(4-(6-(2-((8S,9S,10R,13S,14S,17S)-10,13-dimethyl-3-oxo-2,3,6,7,8,9,10,11,12,13,14,15,16,17-tetradecahydro-1H-cyclopenta[a]phenanthren-17-yl)-2-oxoethoxy)hexanoyl)piperazine-1-carbonyl)-4-fluorobenzyl)phthalazin-1(2H)-one], the IC50 in assay [1] (setting [3]) was in the range of 10 to 100 nM; with LNCap cells (Table 8), 100 to 1000 nM; in assay [2] (setting [4]) it was 100 to 1000 nM.

`CC#C[C@]1(O)CC[C@H]2[C@@H]3CCC4=CC(=O)CCC4=C3[C@@H](c3ccc(N(C)CCCCCC(=O)N4CCN(C(=O)c5cc(Cc6n[nH]c(=O)c7ccccc67)ccc5F)CC4)cc3)C[C@@]21C` [Compound 135, 4-(4-fluoro-3-(4-(6-((4-((8S,11R,13S,14S,17S)-17-hydroxy-13-methyl-3-oxo-17-(prop-1-ynyl)-2,3,6,7,8,11,12,13,14,15,16,17-dodecahydro-1H-cyclopenta[a]phenanthren-11-yl)phenyl)(methyl)amino)hexanoyl)piperazine-1-carbonyl)benzyl)phthalazin-1(2H)-one]: the values for the IC50 (in assay [1] (setting [3]); with LNCap cells (Table 8); in assay [2] (setting [4])) were 10 to 100 nM, 100 to 1000 nM and 100 to 1000 nM, respectively.

Turning to `C[C@]12C[C@H](CCCCCC(=O)N3CCN(C(=O)c4cc(Cc5n[nH]c(=O)c6ccccc56)ccc4F)CC3)C3=C4CCC(=O)C=C4CC[C@H]3[C@@H]1CCC2O` (stereo partly drawn) [Compound 138, 4-(4-fluoro-3-(4-(6-((8S,11S,13S,14S)-17-hydroxy-13-methyl-3-oxo-2,3,6,7,8,11,12,13,14,15,16,17-dodecahydro-1H-cyclopenta[a]phenanthren-11-yl)hexanoyl)piperazine-1-carbonyl)benzyl)phthalazin-1(2H)-one], the IC50 in assay [1] fell in the range of 10 to 100 nM; in the assay on LNCap cells (Table 7) it was 100 to 1000 nM; in assay [2], 100 to 1000 nM.

Take `CC#C[C@]1(O)CC[C@H]2[C@@H]3CCC4=CC(=O)CCC4=C3[C@@H](c3ccc(N(C)CCCCCC(=O)NCCOCCOCC(=O)N4CCN(C(=O)c5cc(Cc6n[nH]c(=O)c7ccccc67)ccc5F)CC4)cc3)C[C@@]21C` [Compound 1429, N-(2-(2-(2-(4-(2-fluoro-5-((4-oxo-3,4-dihydrophthalazin-1-yl)methyl)benzoyl)piperazin-1-yl)-2-oxoethoxy)ethoxy)ethyl)-6-((4-((8S,11R,13S,14S,17S)-17-hydroxy-13-methyl-3-oxo-17-(prop-1-ynyl)-2,3,6,7,8,11,12,13,14,15,16,17-dodecahydro-1H-cyclopenta[a]phenanthren-11-yl)phenyl)(methyl)amino)hexanamide]: the figures for the IC50 (in assay [1] (setting [3]); in the assay on LNCap cells (Table 8); in assay [2] (setting [4])) were 10 to 100 nM, more than 10000 nM and more than 10000 nM, respectively.

As for `C[C@]12Cc3cn[nH]c3C[C@@H]1CC[C@@H]1[C@@H]2CC[C@]2(C)[C@@H](OCCCCCC(=O)N3CCN(C(=O)c4cc(Cc5n[nH]c(=O)c6ccccc56)ccc4F)CC3)CC[C@@H]12` [Compound 1394, 4-(3-(4-(6-(((1S,3aS,3bR,5aS,10aS,10bS,12aS)-10a,12a-dimethyl-1,2,3,3a,3b,4,5,5a,6,7,10,10a,10b,11,12,12a-hexadecahydrocyclopenta[5,6]naphtho[1,2-f]indazol-1-yl)oxy)hexanoyl)piperazine-1-carbonyl)-4-fluorobenzyl)phthalazin-1(2H)-one], the IC50 in assay [1] lay within 100 to 1000 nM; with LNCap cells (Table 7), 100 to 1000 nM; in assay [2] (Table 7, testosterone 1 nM, read-out: AR antagonism), 1000 to 10000 nM.

Regarding `CC(=O)O[C@]1(C(C)=O)CC[C@H]2[C@@H]3CCC4=CC(=O)CCC4=C3[C@@H](c3ccc(N(C)CCCCCC(=O)N4CCN(C(=O)c5cc(Cc6n[nH]c(=O)c7ccccc67)ccc5F)CC4)cc3)C[C@@]21C` [Compound 1378, (8S,11R,13S,14S,17R)-17-acetyl-11-(4-((6-(4-(2-fluoro-5-((4-oxo-3,4-dihydrophthalazin-1-yl)methyl)benzoyl)piperazin-1-yl)-6-oxohexyl)(methyl)amino)phenyl)-13-methyl-3-oxo-2,3,6,7,8,11,12,13,14,15,16,17-dodecahydro-1H-cyclopenta[a]phenanthren-17-yl acetate], the IC50 in assay [1] (setting [3]) is less than 10 nM; in the assay with LNCap cells (Table 8), 100 to 1000 nM; in assay [2] (setting [4]) it was 100 to 1000 nM.

As to `C[C@@]12CCC(=O)C[C@H]1CC[C@H]1[C@H]2CC[C@]2(C)[C@@H]1CC[C@H]2OCCCCCCNC(=O)c1cc(Cc2n[nH]c(=O)c3ccccc23)ccc1F` (stereo in doubt) [Compound 1426, N-(6-((5R,8S,9R,10R,13R,14R,17R)-10,13-dimethyl-3-oxohexadecahydro-1H-cyclopenta[a]phenanthren-17-yloxy)hexyl)-2-fluoro-5-((4-oxo-3,4-dihydrophthalazin-1-yl)methyl)benzamide], the IC50 in assay [1] fell in the range of 100 to 1000 nM; in the assay on LNCap cells (Table 7), 1000 to 10000 nM; in assay [2], 100 to 1000 nM.
